Data as given in ChEMBL document CHEMBL3871268, “Chalcogen containing heterocyclic scaffolds: New hybrids with antitumoral activity” (Eur J Med Chem, 2016).

Assays:
[1] = Cell cycle analysis in human MCF7 cells assessed as accumulation at G0/G1 phase at 5 uM measured after 24 hrs by propidium iodide staining-based flow cytometry (reference value: 73.6%); assay type: functional
[2] = Cell cycle analysis in human MCF7 cells assessed as accumulation at S phase at 1 uM measured after 24 hrs by propidium iodide staining-based flow cytometry (reference value: 15.3%); assay type: functional
[3] = Cytotoxicity against human PC3 cells assessed as reduction in cell viability measured after 72 hrs by MTT assay; assay type: functional; conditions: PC-3, 72 h
[4] = Cell cycle arrest in human MCF7 cells assessed as sub-diploid cells at 18 uM pretreated with pan-caspase inhibitor Z-VAD-FMK for 1 hr followed by compound addition measured after 48 hrs by propidium iodide staining-based flow cytometry assay (reference value: 1.9%); assay type: functional; parameters: scale not given: the % may be the effect or the level left
[5] = Cell cycle analysis in human MCF7 cells assessed as accumulation at G2/M phase at 10 uM measured after 24 hrs by propidium iodide staining-based flow cytometry (reference value: 8.9%); assay type: functional
[6] = Cell cycle analysis in human MCF7 cells assessed as accumulation at G2/M phase at 25 uM measured after 24 hrs by propidium iodide staining-based flow cytometry (reference value: 8.9%); assay type: functional
[7] = Cell cycle analysis in human MCF7 cells assessed as accumulation at G0/G1 phase at 10 uM measured after 24 hrs by propidium iodide staining-based flow cytometry (reference value: 73.6%); assay type: functional
[8] = Cell cycle analysis in human MCF7 cells assessed as accumulation at G0/G1 phase at 25 uM measured after 24 hrs by propidium iodide staining-based flow cytometry (reference value: 73.6%); assay type: functional
[9] = Cell cycle analysis in human MCF7 cells assessed as accumulation at SubG1 phase at 5 uM measured after 24 hrs by propidium iodide staining-based flow cytometry (reference value: 2.6%); assay type: functional
[10] = Cell cycle analysis in human MCF7 cells assessed as accumulation at S phase at 25 uM measured after 24 hrs by propidium iodide staining-based flow cytometry (reference value: 15.3%); assay type: functional
[11] = Cell cycle arrest in human MCF7 cells assessed as sub-diploid cells at 18 uM pretreated with autophagy inhibitor wortmannin for 1 hr followed by compound addition measured after 48 hrs by propidium iodide staining-based flow cytometry assay (reference value: 1.9%); assay type: functional; parameters: scale not given: the % may be the effect or the level left
[12] = Cell cycle arrest in human MCF7 cells assessed as M1 quadrant cells at 18 uM measured after 48 hrs by propidium iodide staining-based flow cytometry (reference value: 98.1%); assay type: functional
[13] = Cell cycle analysis in human MCF7 cells assessed as accumulation at SubG1 phase at 10 uM measured after 24 hrs by propidium iodide staining-based flow cytometry (reference value: 2.6%); assay type: functional
[14] = Cell cycle analysis in human MCF7 cells assessed as accumulation at G2/M phase at 5 uM measured after 24 hrs by propidium iodide staining-based flow cytometry (reference value: 8.9%); assay type: functional
[15] = Cell cycle arrest in human MCF7 cells assessed as sub-diploid cells at 18 uM measured after 48 hrs by propidium iodide staining-based flow cytometry (reference value: 1.9%); assay type: functional
[16] = Cytotoxicity against human 184B5 cells assessed as reduction in cell viability measured after 72 hrs by MTT assay; assay type: toxicity, cell-based; conditions: for GI50 at 72 h: 184B5 cells; for LC50 / TGI: 184b5, 72 h
[17] = Cell cycle analysis in human MCF7 cells assessed as accumulation at S phase at 5 uM measured after 24 hrs by propidium iodide staining-based flow cytometry (reference value: 15.3%); assay type: functional
[18] = Cell cycle arrest in human MCF7 cells assessed as M1 quadrant cells at 18 uM pretreated with pan-caspase inhibitor Z-VAD-FMK for 1 hr followed by compound addition measured after 48 hrs by propidium iodide staining-based flow cytometry assay (reference value: 98.1%); assay type: functional; parameters: scale not given: the % may be the effect or the level left
MCF7 = experiment: Selectivity index, ratio of GI50 for human 184B5 cells to GI50 for human MCF7 cells; assay type: functional
[19] = Cell cycle analysis in human MCF7 cells assessed as accumulation at G2/M phase at 1 uM measured after 24 hrs by propidium iodide staining-based flow cytometry (reference value: 8.9%); assay type: functional
[20] = Cell cycle analysis in human MCF7 cells assessed as accumulation at SubG1 phase at 18 uM measured after 24 hrs by propidium iodide staining-based flow cytometry (reference value: 2.6%); assay type: functional
[21] = Cell cycle analysis in human MCF7 cells assessed as accumulation at S phase at 10 uM measured after 24 hrs by propidium iodide staining-based flow cytometry (reference value: 15.3%); assay type: functional
[22] = Cytotoxicity against human MCF7 cells assessed as reduction in cell viability measured after 72 hrs by MTT assay; assay type: functional; conditions: MCF7, 72 h
[23] = Cell cycle analysis in human MCF7 cells assessed as accumulation at G2/M phase at 18 uM measured after 24 hrs by propidium iodide staining-based flow cytometry (reference value: 8.9%); assay type: functional
[24] = Cell cycle analysis in human MCF7 cells assessed as accumulation at S phase at 18 uM measured after 24 hrs by propidium iodide staining-based flow cytometry (reference value: 15.3%); assay type: functional
[25] = Cell cycle arrest in human MCF7 cells assessed as increase in subdiploid cells at 18 uM after 48 hrs by TUNEL based flow cytometry assay; assay type: functional
[26] = Cell cycle analysis in human MCF7 cells assessed as accumulation at G0/G1 phase at 1 uM measured after 24 hrs by propidium iodide staining-based flow cytometry (reference value: 73.6%); assay type: functional
[27] = Cell cycle analysis in human MCF7 cells assessed as accumulation at SubG1 phase at 25 uM measured after 24 hrs by propidium iodide staining-based flow cytometry (reference value: 2.6%); assay type: functional
[28] = Cell cycle arrest in human MCF7 cells assessed as M1 quadrant cells at 18 uM pretreated with autophagy inhibitor wortmannin for 1 hr followed by compound addition measured after 48 hrs by propidium iodide staining-based flow cytometry assay (reference value: 98.1%); assay type: functional; parameters: scale not given: the % may be the effect or the level left
[29] = Cell cycle analysis in human MCF7 cells assessed as accumulation at G0/G1 phase at 18 uM measured after 24 hrs by propidium iodide staining-based flow cytometry (reference value: 73.6%); assay type: functional
[30] = Cell cycle analysis in human MCF7 cells assessed as accumulation at SubG1 phase at 1 uM measured after 24 hrs by propidium iodide staining-based flow cytometry (reference value: 2.6%); assay type: functional
[31] = Cell cycle analysis in human MCF7 cells assessed as accumulation at G0/G1 phase at 50 uM measured after 8 hrs by propidium iodide staining-based flow cytometry (reference value: 72.1%); assay type: functional
[32] = Cell cycle analysis in human MCF7 cells assessed as accumulation at G2/M phase at 50 uM measured after 48 hrs by propidium iodide staining-based flow cytometry (reference value: 8.5%); assay type: functional
[33] = Cell cycle analysis in human MCF7 cells assessed as accumulation at G0/G1 phase at 50 uM measured after 48 hrs by propidium iodide staining-based flow cytometry (reference value: 72.1%); assay type: functional
[34] = Cell cycle analysis in human MCF7 cells assessed as accumulation at SubG1 phase at 50 uM by propidium iodide staining-based flow cytometry; assay type: functional; conditions: TDE = time-dependent effect
[35] = Cell cycle analysis in human MCF7 cells assessed as accumulation at G0/G1 phase at 50 uM measured after 16 hrs by propidium iodide staining-based flow cytometry (reference value: 72.1%); assay type: functional
[36] = Cell cycle analysis in human MCF7 cells assessed as accumulation at S phase at 50 uM measured after 4 hrs by propidium iodide staining-based flow cytometry (reference value: 13.2%); assay type: functional
[37] = Cell cycle arrest in human MCF7 cells assessed as sub-diploid cells at 50 uM pretreated with pan-caspase inhibitor Z-VAD-FMK for 1 hr followed by compound addition measured after 48 hrs by propidium iodide staining-based flow cytometry assay (reference value: 1.9%); assay type: functional; parameters: scale not given: the % may be the effect or the level left
[38] = Cell cycle analysis in human MCF7 cells assessed as accumulation at SubG1 phase at 50 uM measured after 4 hrs by propidium iodide staining-based flow cytometry (reference value: 5.6%); assay type: functional
[39] = Cell cycle analysis in human MCF7 cells assessed as accumulation at G2/M phase at 50 uM measured after 16 hrs by propidium iodide staining-based flow cytometry (reference value: 8.5%); assay type: functional
[40] = Cell cycle analysis in human MCF7 cells assessed as accumulation at SubG1 phase at 50 uM measured after 48 hrs by propidium iodide staining-based flow cytometry (reference value: 5.6%); assay type: functional
[41] = Cell cycle analysis in human MCF7 cells assessed as accumulation at G0/G1 phase at 50 uM measured after 24 hrs by propidium iodide staining-based flow cytometry (reference value: 72.1%); assay type: functional
[42] = Cell cycle analysis in human MCF7 cells assessed as accumulation at S phase at 50 uM measured after 16 hrs by propidium iodide staining-based flow cytometry (reference value: 13.2%); assay type: functional
[43] = Cell cycle analysis in human MCF7 cells assessed as accumulation at S phase at 50 uM measured after 8 hrs by propidium iodide staining-based flow cytometry (reference value: 13.2%); assay type: functional
[44] = Cell cycle analysis in human MCF7 cells assessed as accumulation at G0/G1 phase at 50 uM measured after 4 hrs by propidium iodide staining-based flow cytometry (reference value: 72.1%); assay type: functional
[45] = Cell cycle analysis in human MCF7 cells assessed as accumulation at SubG1 phase at 50 uM measured after 8 hrs by propidium iodide staining-based flow cytometry (reference value: 5.6%); assay type: functional
[46] = Cell cycle arrest in human MCF7 cells assessed as M1 quadrant cells at 50 uM pretreated with pan-caspase inhibitor Z-VAD-FMK for 1 hr followed by compound addition measured after 48 hrs by propidium iodide staining-based flow cytometry assay (reference value: 98.1%); assay type: functional; parameters: scale not given: the % may be the effect or the level left
[47] = Cell cycle analysis in human MCF7 cells assessed as accumulation at G2/M phase at 50 uM measured after 8 hrs by propidium iodide staining-based flow cytometry (reference value: 8.5%); assay type: functional
[48] = Cell cycle analysis in human MCF7 cells assessed as accumulation at G2/M phase at 50 uM measured after 24 hrs by propidium iodide staining-based flow cytometry (reference value: 8.5%); assay type: functional
[49] = Cell cycle arrest in human MCF7 cells assessed as M1 quadrant cells at 50 uM pretreated with autophagy inhibitor wortmannin for 1 hr followed by compound addition measured after 48 hrs by propidium iodide staining-based flow cytometry assay (reference value: 98.1%); assay type: functional; parameters: scale not given: the % may be the effect or the level left
[50] = Cell cycle analysis in human MCF7 cells assessed as accumulation at G2/M phase at 50 uM measured after 4 hrs by propidium iodide staining-based flow cytometry (reference value: 8.5%); assay type: functional
[51] = Cell cycle analysis in human MCF7 cells assessed as accumulation at SubG1 phase at 50 uM measured after 16 hrs by propidium iodide staining-based flow cytometry (reference value: 5.6%); assay type: functional
[52] = Cell cycle analysis in human MCF7 cells assessed as accumulation at S phase at 50 uM measured after 48 hrs by propidium iodide staining-based flow cytometry (reference value: 13.2%); assay type: functional
[53] = Cell cycle arrest in human MCF7 cells assessed as M1 quadrant cells at 50 uM measured after 48 hrs by propidium iodide staining-based flow cytometry (reference value: 98.1%); assay type: functional
[54] = Cell cycle analysis in human MCF7 cells assessed as accumulation at SubG1 phase at 50 uM measured after 24 hrs by propidium iodide staining-based flow cytometry (reference value: 5.6%); assay type: functional
[55] = Cell cycle arrest in human MCF7 cells assessed as sub-diploid cells at 50 uM measured after 48 hrs by propidium iodide staining-based flow cytometry (reference value: 1.9%); assay type: functional
[56] = Cell cycle analysis in human MCF7 cells assessed as accumulation at S phase at 50 uM measured after 24 hrs by propidium iodide staining-based flow cytometry (reference value: 13.2%); assay type: functional
[57] = Cell cycle arrest in human MCF7 cells assessed as sub-diploid cells at 50 uM pretreated with autophagy inhibitor wortmannin for 1 hr followed by compound addition measured after 48 hrs by propidium iodide staining-based flow cytometry assay (reference value: 1.9%); assay type: functional; parameters: scale not given: the % may be the effect or the level left

Cc1noc(C)c1CSC#N
Activity [1]: 68.1% | Activity [2]: 22.2% | GI50 [3]: 8 µM | LC50 (concentration lethal to 50% of cells) [3]: 21.9 µM | TGI [3]: 13.8 µM | Activity [4]: 19.1% | Activity [5]: 51.8% | Activity [6]: 25.8% | Activity [7]: 33.8% | Activity [8]: 54.6% | Activity [9]: 3.3% | Activity [10]: 16.3% | Activity [11]: 50.4% | Activity [12]: 46% | Activity [13]: 3.4% | Activity [14]: 13.2% | Activity [15]: 53.7% | GI50 at 72 h [16]: 46.2 µM | LC50 [16]: 99.5 µM | TGI [16]: 74.2 µM | Activity [17]: 14.9% | Activity [18]: 80.9% | RatioGI50 (MCF7): 9.6 | Activity [19]: 8.9% | Activity [20]: 5.7% | Activity [21]: 11.6% | GI50 [22]: 4.8 µM | LC50 [22]: 84.9 µM | TGI [22]: 44.6 µM | Activity [23]: 66.1% | Activity [24]: 9.9% | Activity [25]: > 60% | Activity [26]: 67.6% | Activity [27]: 4.4% | Activity [28]: 49.6% | Activity [29]: 18.4% | Activity [30]: 2%

N#C[Se]Cc1ccc(-n2cccc2)cc1
Activity [31]: 61.4% | Activity [32]: 10.3% | GI50 [3]: 59.9 µM | LC50 (concentration lethal to 50% of cells) [3]: > 100 µM | TGI [3]: > 100 µM | Activity [33]: 53.6% | Activity [34]: Tde | Activity [35]: 53.7% | Activity [36]: 19.3% | Activity [37]: 18.2% | Activity [38]: 2.2% | Activity [39]: 17.2% | Activity [40]: 25.2% | Activity [41]: 55.7% | Activity [42]: 17.6% | Activity [43]: 17.8% | Activity [44]: 59.6% | Activity [45]: 2.9% | GI50 at 72 h [16]: > 100 µM | LC50 [16]: > 100 µM | TGI [16]: > 100 µM | RatioGI50 (MCF7): >41.8 | Activity [46]: 81.7% | Activity [47]: 18.4% | Activity [48]: 14% | GI50 [22]: 2.4 µM | LC50 [22]: > 100 µM | TGI [22]: > 100 µM | Activity [49]: 69.2% | Activity [50]: 18.7% | Activity [51]: 9.4% | Activity [52]: 9.1% | Activity [53]: 67.8% | Activity [54]: 13.1% | Activity [55]: 32.2% | Activity [56]: 17.2% | Activity [57]: 30.8%
